Molecules are shown by their SMILES. A value given as a limit tells only on which side of the number the result lay.

For orientation: IC50 means the concentration that inhibits the measured activity by half. Higher therefore signals weaker potency in that assay.

The target of this test is T1, mouse TRPM3α2 (mTRPM3) ion channel (Mus musculus, UniProt J9SQF3).
T1 construct: expressed in transfected cells; host or cells: flip-in HEK293
Put plainly: TRPM3 ion channel driven Ca2+ uptake (Fluo-4 AM assay, pregnenolone sulfate stimulated). It is filed as cell-based. The conditions noted are these: TRPM3 overexpressing flip-in HEK293 cells, channel opened with pregnenolone sulfate (PS) 50 μM, 2.4 mM Ca2+. As to the method:
In order to monitor the inhibition of the mouse TRPM3α2 (mTRPM3) ion channel by the compounds of the invention, a cellular system making use of an mTRPM3alpha2 or hTRPM3 overexpressing cell line (flip-in HEK293) was used. The TRPM3 channel was stimulated/opened with Pregnenolone sulfate (PS) (50 μM) which results in Ca^2+ influx.
For mTRPM3, the intracellular Ca^2+ was measured with a Calcium responsive dye, Fluor-4 AM ester (Invitrogen). Cells were cultured until a confluence of 80-90%, washed with Versene (Invitrogen) and detached from the surface by a short incubation with 0.05% Trypsin (Invitrogen). The trypsination process was stopped by the addition of complete cell culture medium (DMEM, glutamax, 10% FCS, NEAA, Pen-Strep). Cells were collected and resuspended in Krebs buffer without Calcium at RT.
Prior the cell seeding (±2000 cells/well into a black, 384 well plate (Greiner)) the diluted compound was added in the assay plate, together with the PS dissolved in Krebs buffer containing Calcium. […] Directly after cell addition the plates were read on an Envision fluorescence reader (Perkin Elmer) by an Excitation of 485 nm and emission at 535 nm.
Channel inhibition was calculated compared to a non-PS stimulated control versus a condition stimulated with PS (50 μM) with vehicle. The ability of a the compounds of the invention to inhibit this activity was determined as: Percentage inhibition=[1−((RFU determined for sample with test compound present−RFU determined for sample with positive control inhibitor) divided by (RFU determined in the presence of vehicle−RFU determined for sample with positive control inhibitor))]*100.
The activities of the Example compounds […] tested are depicted in the table below. The activity ranges A, B and C refer to IC50 values in the Fluo-4 AM assay as follows: […]

T1 sequence (J9SQF3 1-1709 isoform J9SQF3-12): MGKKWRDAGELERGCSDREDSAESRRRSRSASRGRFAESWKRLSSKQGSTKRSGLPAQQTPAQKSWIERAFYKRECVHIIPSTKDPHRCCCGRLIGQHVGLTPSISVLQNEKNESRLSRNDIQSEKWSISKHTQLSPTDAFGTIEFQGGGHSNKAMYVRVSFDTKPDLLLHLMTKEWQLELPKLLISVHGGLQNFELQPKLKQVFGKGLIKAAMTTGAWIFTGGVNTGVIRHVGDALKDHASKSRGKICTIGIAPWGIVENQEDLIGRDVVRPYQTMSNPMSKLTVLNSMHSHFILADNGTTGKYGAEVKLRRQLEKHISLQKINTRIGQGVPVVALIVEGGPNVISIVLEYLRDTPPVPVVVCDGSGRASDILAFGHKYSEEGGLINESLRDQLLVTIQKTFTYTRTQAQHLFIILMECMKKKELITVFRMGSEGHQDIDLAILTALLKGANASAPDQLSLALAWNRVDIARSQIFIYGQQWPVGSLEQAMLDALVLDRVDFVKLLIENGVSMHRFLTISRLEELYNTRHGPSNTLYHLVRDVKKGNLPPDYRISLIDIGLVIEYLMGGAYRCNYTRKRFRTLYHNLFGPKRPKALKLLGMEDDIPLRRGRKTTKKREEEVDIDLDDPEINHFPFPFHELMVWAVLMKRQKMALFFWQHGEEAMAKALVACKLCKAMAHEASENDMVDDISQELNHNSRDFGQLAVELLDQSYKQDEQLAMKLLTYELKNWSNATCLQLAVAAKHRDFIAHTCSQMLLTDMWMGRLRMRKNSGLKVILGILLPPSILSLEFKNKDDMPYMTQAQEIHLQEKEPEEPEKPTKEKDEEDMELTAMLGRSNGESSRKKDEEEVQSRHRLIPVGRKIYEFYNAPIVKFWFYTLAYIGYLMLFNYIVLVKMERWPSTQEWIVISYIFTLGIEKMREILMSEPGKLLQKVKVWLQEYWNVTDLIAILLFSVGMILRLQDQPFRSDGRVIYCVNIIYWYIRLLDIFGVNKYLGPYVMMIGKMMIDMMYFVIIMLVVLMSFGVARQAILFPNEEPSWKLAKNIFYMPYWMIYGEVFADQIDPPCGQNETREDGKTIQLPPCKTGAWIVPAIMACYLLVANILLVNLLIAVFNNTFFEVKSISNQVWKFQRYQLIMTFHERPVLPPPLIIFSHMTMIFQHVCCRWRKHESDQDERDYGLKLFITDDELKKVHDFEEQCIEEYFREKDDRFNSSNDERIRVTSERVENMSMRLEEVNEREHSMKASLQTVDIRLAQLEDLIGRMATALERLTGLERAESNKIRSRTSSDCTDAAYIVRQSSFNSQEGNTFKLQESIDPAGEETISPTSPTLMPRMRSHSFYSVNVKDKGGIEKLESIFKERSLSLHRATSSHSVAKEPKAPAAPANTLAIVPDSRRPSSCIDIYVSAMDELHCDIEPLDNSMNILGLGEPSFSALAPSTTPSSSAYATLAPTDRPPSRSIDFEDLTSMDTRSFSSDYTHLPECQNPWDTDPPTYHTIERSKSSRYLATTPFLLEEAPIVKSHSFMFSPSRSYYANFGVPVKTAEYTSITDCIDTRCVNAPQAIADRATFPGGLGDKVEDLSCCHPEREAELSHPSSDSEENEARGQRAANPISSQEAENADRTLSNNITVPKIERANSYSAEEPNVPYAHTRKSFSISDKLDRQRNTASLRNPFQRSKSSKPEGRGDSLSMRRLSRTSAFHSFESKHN

As for `Cc1cc2ccc(OCc3ccccc3F)cn2c1C(=O)NC(C)(CO)C(N)=O` (single isomer, unassigned) [Cpd 005 - En1, 2-({6-[(2-fluorophenyl)methoxy]-2-methylindolizin-3-yl}formamido)-3-hydroxy-2-methylpropanamide], the IC50 is < 1000 nM.

`Cc1cc2ccc(OCc3ccccc3F)cn2c1C(=O)NC(C)(CO)C(N)=O` (single isomer, unassigned) [Cpd 005 - En2, 2-({6-[(2-fluorophenyl)methoxy]-2-methylindolizin-3-yl}formamido)-3-hydroxy-2-methylpropanamide]: the 50% inhibitory concentration (IC50) is < 1000 nM.

For `Cc1cc2ccc(OCc3ccccc3F)cn2c1C(=O)NC1(CO)CCNC1=O` (single isomer, unassigned) [Cpd 007 - En1], the IC50 was < 1000 nM. Regarding `Cc1cc2ccc(OCc3ccccc3F)cn2c1C(=O)NC1(CO)CCNC1=O` (single isomer, unassigned) [Cpd 007 - En2], the 50% inhibitory concentration (IC50) was in the range of 1000 to 20000 nM. For `Cc1cc2ccc(OCc3ccccn3)cn2c1C(=O)NC(C)(CO)C(N)=O` (single isomer, unassigned) [Cpd 014 - En1], the IC50 is < 1000 nM.

Compound `Cc1cc2ccc(OCc3ccccn3)cn2c1C(=O)NC(C)(CO)C(N)=O` (single isomer, unassigned) [Cpd 014 - En2] returned a half-maximal inhibitory concentration (IC50) of 1000 to 20000 nM. With `Cc1cc2ccc(OCc3ccccn3)cn2c1C(=O)NC1(CO)CCNC1=O` (single isomer, unassigned) [Cpd 016 - En1], the IC50 was < 1000 nM.

For `Cc1cc2ccc(OCc3ccccn3)cn2c1C(=O)NC1(CO)CCNC1=O` (single isomer, unassigned) [Cpd 016 - En2], the IC50 was in the range of 1000 to 20000 nM. The result for `Cc1cc2ccc(OCc3ccccn3)cn2c1C(=O)NC1CNCCC1(F)F` (single isomer, unassigned) [Cpd 017 - En1, N-(4,4-difluoropiperidin-3-yl)-2-methyl-6-[(pyridin-2-yl)methoxy]indolizine-3-carboxamide] reads 1000 to 20000 nM. In the case of `Cc1cc2ccc(OCc3ccccn3)cn2c1C(=O)NC1CNCCC1(F)F` (single isomer, unassigned) [Cpd 017 - En2, N-(4,4-difluoropiperidin-3-yl)-2-methyl-6-[(pyridin-2-yl)methoxy]indolizine-3-carboxamide], the IC50 is > 20000 nM. In the case of `Cc1cc2ccc(OCc3ccccn3)cn2c1C(=O)NC(C)C(N)=O` (single isomer, unassigned) [Cpd 018 - En1] it was 1000 to 20000 nM. As to `Cc1cc2ccc(OCc3ccccn3)cn2c1C(=O)NC(C)C(N)=O` (single isomer, unassigned) [Cpd 018 - En2], the IC50 lay within 1000 to 20000 nM. Consider `Cc1cc2ccc(OCC3CC3)cn2c1C(=O)NC(C)(CO)C(N)=O` (single isomer, unassigned) [Cpd 019 - En1], for which the IC50 was < 1000 nM. In turn, `Cc1cc2ccc(OCC3CC3)cn2c1C(=O)NC(C)(CO)C(N)=O` (single isomer, unassigned) [Cpd 019 - En2] came in with a concentration for half-maximal inhibition (IC50) of 1000 to 20000 nM. As for `Cc1cc2ccc(OCC3CC3)cn2c1C(=O)NC1(CO)CCNC1=O` (single isomer, unassigned) [Cpd 021 - En1], the IC50 was < 1000 nM. For `Cc1cc2ccc(OCC3CC3)cn2c1C(=O)NC1(CO)CCNC1=O` (single isomer, unassigned) [Cpd 021 - En2], the half-inhibitory concentration (IC50) lay in the range of 1000 to 20000 nM.

Compound `CC(=O)C(C)NC(=O)c1c(C)cc2ccc(OCC3CC3)cn12` (single isomer, unassigned) [Cpd 023 - En1] displayed an IC50 of 1000 to 20000 nM. Regarding `CC(=O)C(C)NC(=O)c1c(C)cc2ccc(OCC3CC3)cn12` (single isomer, unassigned) [Cpd 023 - En2], the 50% inhibitory concentration (IC50) lay in the range of 1000 to 20000 nM.

Compound `Cc1cc2ccc(OCC(F)F)cn2c1C(=O)NC1CNCCC1(F)F` (single isomer, unassigned) [Cpd 027 - En1] yielded an IC50 of 1000 to 20000 nM. The result for `Cc1cc2ccc(OCC(F)F)cn2c1C(=O)NC1CNCCC1(F)F` (single isomer, unassigned) [Cpd 027 - En2] reads > 20000 nM; that for `CC(=O)C(C)NC(=O)c1c(C)cc2ccc(OCC(F)F)cn12` (single isomer, unassigned) [Cpd 028 - En1], > 20000 nM; that for `CC(=O)C(C)NC(=O)c1c(C)cc2ccc(OCC(F)F)cn12` (single isomer, unassigned) [Cpd 028 - En2], > 20000 nM. In the case of `Cc1ncc(COc2ccc3cc(C)c(C(=O)NC(C)(CO)C(N)=O)n3c2)s1` (single isomer, unassigned) [Cpd 029 - En1, 3-hydroxy-2-methyl-2-({2-methyl-6-[(2-methyl-1,3-thiazol-5-yl)methoxy]indolizin-3-yl}formamido)propanamide], the half-inhibitory concentration (IC50) is < 1000 nM. The compound `Cc1ncc(COc2ccc3cc(C)c(C(=O)NC(C)(CO)C(N)=O)n3c2)s1` (single isomer, unassigned) [Cpd 029 - En2, 3-hydroxy-2-methyl-2-({2-methyl-6-[(2-methyl-1,3-thiazol-5-yl)methoxy]indolizin-3-yl}formamido)propanamide] showed a half-maximal inhibitory concentration (IC50) of 1000 to 20000 nM. Compound `COCC(C)(CO)NC(=O)c1c(C)cc2ccc(OCc3ccccn3)cn12` (single isomer, unassigned) [Cpd 032 - En1] came in with an IC50 of 1000 to 20000 nM. The result for `COCC(C)(CO)NC(=O)c1c(C)cc2ccc(OCc3ccccn3)cn12` (single isomer, unassigned) [Cpd 032 - En2] reads < 1000 nM. In the case of `Cc1cc2ccc(OCc3ccccn3)cn2c1C(=O)NC(CO)C(N)=O` (single isomer, unassigned) [Cpd 033 - En1] it was 1000 to 20000 nM; in that of `Cc1cc2ccc(OCc3ccccn3)cn2c1C(=O)NC(CO)C(N)=O` (single isomer, unassigned) [Cpd 033 - En2], < 1000 nM. With `Cc1cc2ccc(OCc3ccccc3)cn2c1C(=O)NC(CO)C(N)=O` (single isomer, unassigned) [Cpd 034 - En1], the IC50 is < 1000 nM. Regarding `Cc1cc2ccc(OCc3ccccc3)cn2c1C(=O)NC(CO)C(N)=O` (single isomer, unassigned) [Cpd 034 - En2], the half-maximal inhibitory concentration (IC50) is < 1000 nM. In the case of `Cc1cc2ccc(OCc3ccccc3)cn2c1C(=O)NC(C)(CO)CC(F)F` (single isomer, unassigned) [Cpd 035 - En1] it was < 1000 nM; in that of `Cc1cc2ccc(OCc3ccccc3)cn2c1C(=O)NC(C)(CO)CC(F)F` (single isomer, unassigned) [Cpd 035 - En2], 1000 to 20000 nM; in that of `Cc1cc2ccc(OCc3ccccn3)cn2c1C(=O)NC(C)(CO)CC(F)F` (single isomer, unassigned) [Cpd 036 - En1], < 1000 nM. In the case of `Cc1cc2ccc(OCc3ccccn3)cn2c1C(=O)NC(C)(CO)CC(F)F` (single isomer, unassigned) [Cpd 036 - En2] it was 1000 to 20000 nM. In the case of `Cc1cc2ccc(OCc3cccnc3)cn2c1C(=O)NC1(CO)CCNC1=O` (single isomer, unassigned) [Cpd 037 - En1] it was < 1000 nM; in that of `Cc1cc2ccc(OCc3cccnc3)cn2c1C(=O)NC1(CO)CCNC1=O` (single isomer, unassigned) [Cpd 037 - En2], 1000 to 20000 nM. As for `COc1ncccc1COc1ccc2cc(C)c(C(=O)NC3(CO)CCNC3=O)n2c1` (single isomer, unassigned) [Cpd 038 - En1], the IC50 is < 1000 nM. In the case of `COc1ncccc1COc1ccc2cc(C)c(C(=O)NC3(CO)CCNC3=O)n2c1` (single isomer, unassigned) [Cpd 038 - En2] it was 1000 to 20000 nM; in that of `Cc1cc2ccc(OCc3cccnc3C(F)(F)F)cn2c1C(=O)NC1(CO)CCNC1=O` (single isomer, unassigned) [Cpd 039 - En1], < 1000 nM. In the case of `Cc1cc2ccc(OCc3cccnc3C(F)(F)F)cn2c1C(=O)NC1(CO)CCNC1=O` (single isomer, unassigned) [Cpd 039 - En2] it was 1000 to 20000 nM; in that of `Cc1cc2ccc(OCc3c(F)cnn3C)cn2c1C(=O)NC1(CO)CCNC1=O` (single isomer, unassigned) [Cpd 040 - En1], < 1000 nM; in that of `Cc1cc2ccc(OCc3c(F)cnn3C)cn2c1C(=O)NC1(CO)CCNC1=O` (single isomer, unassigned) [Cpd 040 - En2], 1000 to 20000 nM.

For the compound `Cc1cc2ccc(OCc3cnccn3)cn2c1C(=O)NC(CO)CC(F)(F)F` (single isomer, unassigned) [Cpd 041 - En1], the 50% inhibitory concentration (IC50) was 1000 to 20000 nM.

Consider `Cc1cc2ccc(OCc3cnccn3)cn2c1C(=O)NC(CO)CC(F)(F)F` (single isomer, unassigned) [Cpd 041 - En2], for which the concentration for half-maximal inhibition (IC50) was > 20000 nM. The result for `Cc1cc2ccc(OCc3cccnc3)cn2c1C(=O)NC(CO)CC(F)(F)F` (single isomer, unassigned) [Cpd 042 - En1] reads < 1000 nM; that for `Cc1cc2ccc(OCc3cccnc3)cn2c1C(=O)NC(CO)CC(F)(F)F` (single isomer, unassigned) [Cpd 042 - En2], 1000 to 20000 nM.

Source of the values: patent publication US20250376469A1, “INDOLIZINE DERIVATIVES FOR TREATING TRPM3-MEDIATED DISORDERS” (Katholieke Universiteit Leuven, priority 2022, published 2025).
